Source: ChEMBL document CHEMBL1153480, “Study on the potential anti-cancer activity of phosphonium and ammonium-based ionic liquids” (2009)

What was measured:
Format in all cases: functional
SF-539 [1] = test: cells; details: Homo sapiens
Description: Growth inhibition of human SF539 cells assessed as drug level required for 50% reduction in net protein increase by SRB assay relative to control

SNB-19 [2] = test: cells; details: Homo sapiens
Description: Growth inhibition of human SNB19 cells assessed as drug level required for 50% reduction in net protein increase by SRB assay relative to control

SK-MEL-2 [3] = test: cells; details: Homo sapiens
Description: Growth inhibition of human SK-MEL-2 cells assessed as drug level required for 50% reduction in net protein increase by SRB assay relative to control

SK-MEL-28 [4] = test: cells; details: Homo sapiens
Description: Growth inhibition of human SK-MEL-28 cells assessed as drug level required for 50% reduction in net protein increase by SRB assay relative to control

UACC-257 [5] = test: cells; details: Homo sapiens
Description: Growth inhibition of human UACC257 cells assessed as drug level required for 50% reduction in net protein increase by SRB assay relative to control

OVCAR-8 = test: cells; details: Homo sapiens
Description: Growth inhibition of human OVCAR8 cells assessed as drug level required for 50% reduction in net protein increase by SRB assay relative to control

UO-31 [6] = test: cells; details: Homo sapiens
Description: Growth inhibition of human UO31 cells assessed as drug level required for 50% reduction in net protein increase by SRB assay relative to control

PC-3 [7] = test: cells; details: Homo sapiens
Description: Growth inhibition of human PC3 cells assessed as drug level required for 50% reduction in net protein increase by SRB assay relative to control

DU-145 [8] = test: cells; details: Homo sapiens
Description: Growth inhibition of human DU145 cells assessed as drug level required for 50% reduction in net protein increase by SRB assay relative to control

MDA-MB-231 [9] = test: cells; details: Homo sapiens
Description: Growth inhibition of human MDA-MB-231 cells assessed as drug level required for 50% reduction in net protein increase by SRB assay relative to control

A498 = test: cells; details: Homo sapiens
Description: Growth inhibition of human A498 cells assessed as cell growth at 10 uM by SRB assay

T47D = test: cells; details: Homo sapiens
Description: Growth inhibition of human T47D cells assessed as drug level required for 50% reduction in net protein increase by SRB assay relative to control

MDA-MB-468 [10] = test: cells; details: Homo sapiens
Description: Growth inhibition of human MDA-MB-468 cells assessed as drug level required for 50% reduction in net protein increase by SRB assay relative to control

K562 [11] = test: Cytotoxicity against human K562 cells by SRB assay; details: read-out: LC50 (the source's name)
MOLT-4 [12] = test: Cytotoxicity against human MOLT4 cells by SRB assay; details: read-out: LC50 (the source's name)
A549 = test: Cytotoxicity against human A549 cells by SRB assay; details: read-out: LC50 (the source's name)
NCI-H23 [13] = test: Cytotoxicity against human NCI-H23 cells by SRB assay; details: read-out: LC50 (the source's name)
NCI-H460 [14] = test: Cytotoxicity against human NCI-H460 cells by SRB assay; details: read-out: LC50 (the source's name)
NCI-H522 = test: Cytotoxicity against human NCI-H522 cells by SRB assay; details: read-out: LC50 (the source's name)
HCT-116 = test: Cytotoxicity against human HCT116 cells by SRB assay; details: read-out: LC50 (the source's name)
HT-29 [15] = test: Cytotoxicity against human HT-29 cells by SRB assay; details: read-out: LC50 (the source's name)
KM12 [16] = test: Cytotoxicity against human KM12 cells by SRB assay; details: read-out: LC50 (the source's name)
SNB-19 [17] = test: Cytotoxicity against human SNB19 cells by SRB assay; details: read-out: LC50 (the source's name)
SNB-75 = test: Cytotoxicity against human SNB75 cells by SRB assay; details: read-out: LC50 (the source's name)
Malme-3M = test: Cytotoxicity against human MALME-3M cells by SRB assay; details: read-out: LC50 (the source's name)
M14 = test: Cytotoxicity against human M14 cells by SRB assay; details: read-out: LC50 (the source's name)
SK-MEL-2 [18] = test: Cytotoxicity against human SK-MEL-2 cells by SRB assay; details: read-out: LC50 (the source's name)
IGROV-1 = test: Cytotoxicity against human IGROV1 cells by SRB assay; details: read-out: LC50 (the source's name)
OVCAR-3 = test: Cytotoxicity against human OVCAR-3 cells by SRB assay; details: read-out: LC50 (the source's name)
ACHN = test: cells; details: Homo sapiens
Description: Growth inhibition of human ACHN cells assessed as cell growth at 10 uM by SRB assay

cells = details: Homo sapiens, CAKI
Description: Growth inhibition of human CAKI cells assessed as cell growth at 10 uM by SRB assay

TK-10 = test: cells; details: Homo sapiens
Description: Growth inhibition of human TK10 cells assessed as cell growth at 10 uM by SRB assay

UO-31 [19] = test: cells; details: Homo sapiens; remark: listed apart in the source
Description: Growth inhibition of human UO31 cells assessed as cell growth at 10 uM by SRB assay

PC-3 [20] = test: cells; details: Homo sapiens; remark: listed apart in the source
Description: Growth inhibition of human PC3 cells assessed as cell growth at 10 uM by SRB assay

DU-145 [21] = test: cells; details: Homo sapiens; remark: listed apart in the source
Description: Growth inhibition of human DU145 cells assessed as cell growth at 10 uM by SRB assay

MCF7 [22] = test: cells; details: Homo sapiens
Description: Growth inhibition of human MCF7 cells assessed as cell growth at 10 uM by SRB assay

NCI/ADR-RES = test: cells; details: Homo sapiens
Description: Growth inhibition of human NCI/ADR-RES cells assessed as cell growth at 10 uM by SRB assay

MDA-MB-231 [23] = test: cells; details: Homo sapiens; remark: listed apart in the source
Description: Growth inhibition of human MDA-MB-231 cells assessed as cell growth at 10 uM by SRB assay

MDA-MB-435 [24] = test: cells; details: Homo sapiens
Description: Growth inhibition of human MDA-MB-435 cells assessed as cell growth at 10 uM by SRB assay

HT-29 [25] = test: cells; details: Homo sapiens
Description: Growth inhibition of human HT-29 cells assessed as drug level required for 50% reduction in net protein increase by SRB assay relative to control

HCT-15 [26] = test: cells; details: Homo sapiens
Description: Growth inhibition of human HCT15 cells assessed as drug level required for 50% reduction in net protein increase by SRB assay relative to control

HCC 2998 [27] = test: cells; details: Homo sapiens
Description: Growth inhibition of human HCC2998 cells assessed as drug level required for 50% reduction in net protein increase by SRB assay relative to control

NCI-H460 [28] = test: cells; details: Homo sapiens
Description: Growth inhibition of human NCI-H460 cells assessed as drug level required for 50% reduction in net protein increase by SRB assay relative to control

UO-31 [29] = test: Cytotoxicity against human UO31 cells by SRB assay; details: read-out: LC50 (the source's name)
PC-3 [30] = test: Cytotoxicity against human PC3 cells by SRB assay; details: read-out: LC50 (the source's name)
MCF7 [31] = test: Cytotoxicity against human MCF7 cells by SRB assay; details: read-out: LC50 (the source's name)
MDA-MB-435 [32] = test: Cytotoxicity against human MDA-MB-435 cells by SRB assay; details: read-out: LC50 (the source's name)
BT-549 = test: Cytotoxicity against human BT549 cells by SRB assay; details: read-out: LC50 (the source's name)
K562 [33] = test: cells; details: Homo sapiens
Description: Growth inhibition of human K562 cells assessed as cell growth at 10 uM by SRB assay

MOLT-4 [34] = test: cells; details: Homo sapiens
Description: Growth inhibition of human MOLT4 cells assessed as cell growth at 10 uM by SRB assay

SR = test: cells; details: Homo sapiens
Description: Growth inhibition of human SR cells assessed as cell growth at 10 uM by SRB assay

HOP-92 [35] = test: cells; details: Homo sapiens
Description: Growth inhibition of human HOP92 cells assessed as cell growth at 10 uM by SRB assay

NCI-H23 [36] = test: cells; details: Homo sapiens
Description: Growth inhibition of human NCI-H23 cells assessed as cell growth at 10 uM by SRB assay

NCI-H322M = test: cells; details: Homo sapiens
Description: Growth inhibition of human NCI-H322M cells assessed as cell growth at 10 uM by SRB assay

HCC 2998 [37] = test: cells; details: Homo sapiens; remark: listed apart in the source
Description: Growth inhibition of human HCC2998 cells assessed as cell growth at 10 uM by SRB assay

HCT-15 [38] = test: cells; details: Homo sapiens; remark: listed apart in the source
Description: Growth inhibition of human HCT15 cells assessed as cell growth at 10 uM by SRB assay

KM12 [39] = test: cells; details: Homo sapiens
Description: Growth inhibition of human KM12 cells assessed as cell growth at 10 uM by SRB assay

SF-295 = test: cells; details: Homo sapiens
Description: Growth inhibition of human SF295 cells assessed as cell growth at 10 uM by SRB assay

NCI-H23 [40] = test: cells; details: Homo sapiens; remark: listed apart in the source
Description: Growth inhibition of human NCI-H23 cells assessed as drug level required for 50% reduction in net protein increase by SRB assay relative to control

HOP-92 [41] = test: cells; details: Homo sapiens; remark: listed apart in the source
Description: Growth inhibition of human HOP92 cells assessed as drug level required for 50% reduction in net protein increase by SRB assay relative to control

HL-60(TB) = test: cells; details: Homo sapiens
Description: Growth inhibition of human HL-60(TB) cells assessed as drug level required for 50% reduction in net protein increase by SRB assay relative to control

MDA-MB-468 [42] = test: cells; details: Homo sapiens; remark: listed apart in the source
Description: Growth inhibition of human MDA-MB-468 cells assessed as cell growth at 10 uM by SRB assay

SF-539 [43] = test: cells; details: Homo sapiens; remark: listed apart in the source
Description: Growth inhibition of human SF539 cells assessed as cell growth at 10 uM by SRB assay

SNB-19 [44] = test: cells; details: Homo sapiens; remark: listed apart in the source
Description: Growth inhibition of human SNB19 cells assessed as cell growth at 10 uM by SRB assay

U-251 = test: cells; details: Homo sapiens
Description: Growth inhibition of human U251 cells assessed as cell growth at 10 uM by SRB assay

SK-MEL-28 [45] = test: cells; details: Homo sapiens; remark: listed apart in the source
Description: Growth inhibition of human SK-MEL-28 cells assessed as cell growth at 10 uM by SRB assay

SK-MEL-5 = test: cells; details: Homo sapiens
Description: Growth inhibition of human SK-MEL-5 cells assessed as cell growth at 10 uM by SRB assay

UACC-257 [46] = test: cells; details: Homo sapiens; remark: listed apart in the source
Description: Growth inhibition of human UACC257 cells assessed as cell growth at 10 uM by SRB assay

UACC-62 = test: cells; details: Homo sapiens
Description: Growth inhibition of human UACC62 cells assessed as cell growth at 10 uM by SRB assay

OVCAR-5 = test: cells; details: Homo sapiens
Description: Growth inhibition of human OVCAR5 cells assessed as cell growth at 10 uM by SRB assay

SK-OV-3 = test: cells; details: Homo sapiens
Description: Growth inhibition of human SKOV3 cells assessed as cell growth at 10 uM by SRB assay

786-0 = test: cells; details: Homo sapiens
Description: Growth inhibition of human 786-0 cells assessed as cell growth at 10 uM by SRB assay

CCCCCCCC[N+](C)(CCCCCCCC)CCCCCCCC.O=S(=O)([N-]S(=O)(=O)C(F)(F)F)C(F)(F)F
GI50 (SF-539 [1]): 514 nM
GI50 (SNB-19 [2]): 587 nM
GI50 (SK-MEL-2 [3]): 356 nM
GI50 (SK-MEL-28 [4]): 710 nM
GI50 (UACC-257 [5]): 411 nM
GI50 (OVCAR-8): 468 nM
GI50 (UO-31 [6]): 686 nM
GI50 (PC-3 [7]): 282 nM
GI50 (DU-145 [8]): 407 nM
GI50 (MDA-MB-231 [9]): 345 nM
growth at 10 µM (A498): -100%
GI50 (T47D): 428 nM
GI50 (MDA-MB-468 [10]): 119 nM
CC50 (K562 [11]): 4860 nM
CC50 (MOLT-4 [12]): 4890 nM
CC50 (A549): 8580 nM
CC50 (NCI-H23 [13]): 6330 nM
CC50 (NCI-H460 [14]): 4100 nM
CC50 (NCI-H522): 5400 nM
CC50 (HCT-116): 9900 nM
CC50 (HT-29 [15]): 5170 nM
CC50 (KM12 [16]): 5310 nM
CC50 (SNB-19 [17]): 8250 nM
CC50 (SNB-75): 3770 nM
CC50 (Malme-3M): 4110 nM
CC50 (M14): 9190 nM
CC50 (SK-MEL-2 [18]): > 100000 nM
CC50 (IGROV-1): > 100000 nM
CC50 (OVCAR-3): 4180 nM
growth at 10 µM (ACHN): -93.6%
growth at 10 µM (cells): -98.6%
growth at 10 µM (TK-10): -100%
growth at 10 µM (UO-31 [19]): -100%
growth at 10 µM (PC-3 [20]): -91.3%
growth at 10 µM (DU-145 [21]): -100%
growth at 10 µM (MCF7 [22]): -100%
growth at 10 µM (NCI/ADR-RES): -100%
growth at 10 µM (MDA-MB-231 [23]): -87%
growth at 10 µM (MDA-MB-435 [24]): -90.8%
GI50 (HT-29 [25]): 305 nM
GI50 (HCT-15 [26]): 993 nM
GI50 (HCC 2998 [27]): 425 nM
GI50 (NCI-H460 [28]): 362 nM
CC50 (UO-31 [29]): 5950 nM
CC50 (PC-3 [30]): 3990 nM
CC50 (MCF7 [31]): 4020 nM
CC50 (MDA-MB-435 [32]): 5700 nM
CC50 (BT-549): 4420 nM
growth at 10 µM (K562 [33]): 86.9%
growth at 10 µM (MOLT-4 [34]): 37.4%
growth at 10 µM (SR): 28.1%
growth at 10 µM (HOP-92 [35]): -70%
growth at 10 µM (NCI-H23 [36]): -97%
growth at 10 µM (NCI-H322M): -100%
growth at 10 µM (HCC 2998 [37]): -98%
growth at 10 µM (HCT-15 [38]): -75%
growth at 10 µM (KM12 [39]): -100%
growth at 10 µM (SF-295): -94.8%
GI50 (NCI-H23 [40]): 308 nM
GI50 (HOP-92 [41]): 206 nM
GI50 (HL-60(TB)): 173 nM
growth at 10 µM (MDA-MB-468 [42]): -90.1%
growth at 10 µM (SF-539 [43]): -100%
growth at 10 µM (SNB-19 [44]): -89.6%
growth at 10 µM (U-251): -75%
growth at 10 µM (SK-MEL-28 [45]): -100%
growth at 10 µM (SK-MEL-5): -100%
growth at 10 µM (UACC-257 [46]): -95.2%
growth at 10 µM (UACC-62): -94.5%
growth at 10 µM (OVCAR-5): -100%
growth at 10 µM (SK-OV-3): -97.8%
growth at 10 µM (786-0): -95.8%

CCCCCCCCCCCCCCCCCCPCCCCCCCCCCCCCC (centres undefined) [MONO(OCTADECYL(TETRADECYL)PHOSPHONIUM) MONO(HEXAFLUOROPHOSPHATE(V)) MONO(TETRAFLUOROBORATE)]
GI50 (SF-539 [1]): 234 nM
GI50 (SNB-19 [2]): 97 nM
GI50 (SK-MEL-2 [3]): 81 nM
GI50 (SK-MEL-28 [4]): 376 nM
GI50 (UACC-257 [5]): 272 nM
GI50 (OVCAR-8): 229 nM
GI50 (UO-31 [6]): 398 nM
GI50 (PC-3 [7]): 44 nM
GI50 (DU-145 [8]): 357 nM
GI50 (MDA-MB-231 [9]): 107 nM
growth at 10 µM (A498): -75.6%
GI50 (T47D): 89 nM
GI50 (MDA-MB-468 [10]): 53 nM
CC50 (K562 [11]): > 100000 nM
CC50 (MOLT-4 [12]): > 100000 nM
CC50 (A549): > 100000 nM
CC50 (NCI-H23 [13]): > 100000 nM
CC50 (NCI-H460 [14]): > 100000 nM
CC50 (NCI-H522): > 100000 nM
CC50 (HCT-116): > 100000 nM
CC50 (HT-29 [15]): > 100000 nM
CC50 (KM12 [16]): > 100000 nM
CC50 (SNB-19 [17]): > 100000 nM
CC50 (SNB-75): > 100000 nM
CC50 (Malme-3M): > 100000 nM
CC50 (M14): > 100000 nM
CC50 (SK-MEL-2 [18]): > 100000 nM
CC50 (IGROV-1): > 100000 nM
CC50 (OVCAR-3): > 100000 nM
growth at 10 µM (ACHN): -58.9%
growth at 10 µM (cells): -70.2%
growth at 10 µM (TK-10): -75%
growth at 10 µM (UO-31 [19]): -44.8%
growth at 10 µM (PC-3 [20]): -32.7%
growth at 10 µM (DU-145 [21]): -54.3%
growth at 10 µM (MCF7 [22]): -40.8%
growth at 10 µM (NCI/ADR-RES): -77.3%
growth at 10 µM (MDA-MB-231 [23]): -74.5%
growth at 10 µM (MDA-MB-435 [24]): -59.3%
GI50 (HT-29 [25]): 61 nM
GI50 (HCT-15 [26]): 339 nM
GI50 (HCC 2998 [27]): 297 nM
GI50 (NCI-H460 [28]): 346 nM
CC50 (UO-31 [29]): > 100000 nM
CC50 (PC-3 [30]): > 100000 nM
CC50 (MCF7 [31]): > 100000 nM
CC50 (MDA-MB-435 [32]): > 100000 nM
CC50 (BT-549): > 100000 nM
growth at 10 µM (K562 [33]): 16.6%
growth at 10 µM (MOLT-4 [34]): 7.02%
growth at 10 µM (SR): 12.1%
growth at 10 µM (HOP-92 [35]): -55.5%
growth at 10 µM (NCI-H23 [36]): -61%
growth at 10 µM (NCI-H322M): -79.2%
growth at 10 µM (HCC 2998 [37]): -76.4%
growth at 10 µM (HCT-15 [38]): -35.8%
growth at 10 µM (KM12 [39]): -52.2%
growth at 10 µM (SF-295): -50%
GI50 (NCI-H23 [40]): 236 nM
GI50 (HOP-92 [41]): 38 nM
GI50 (HL-60(TB)): 39 nM
growth at 10 µM (MDA-MB-468 [42]): -62%
growth at 10 µM (SF-539 [43]): -83.2%
growth at 10 µM (SNB-19 [44]): -44.9%
growth at 10 µM (U-251): -6.5%
growth at 10 µM (SK-MEL-28 [45]): -69.3%
growth at 10 µM (SK-MEL-5): -69.2%
growth at 10 µM (UACC-257 [46]): -59%
growth at 10 µM (UACC-62): -77.4%
growth at 10 µM (OVCAR-5): -70%
growth at 10 µM (SK-OV-3): -68.7%
growth at 10 µM (786-0): -74%
